Laboratory results reported in patent publication US9200046B2, “Reporter system for high throughput screening of compounds and uses thereof” (priority 2011, dated 2015).

Target: Nrf2-Keap1 complex (Homo sapiens, UniProt Q14145)
Experiment: cell-based
Assay type: cell-based
Conditions: for activation at 16 µM / activation at 32 µM: 3 h; for activation at 16 µM: read-out: Activation 100 nL; for activation at 32 µM: read-out: Activation 200 nL; for 100 nL (luminescence): 100 nL compound; for 100 nL (luminescence) / 200 nL (luminescence): screen run at 16 and 32 μM, 3 hr; for 200 nL (luminescence): 200 nL compound

Sequence of Nrf2-Keap1 complex (Q14145 whole entry, one chain of several): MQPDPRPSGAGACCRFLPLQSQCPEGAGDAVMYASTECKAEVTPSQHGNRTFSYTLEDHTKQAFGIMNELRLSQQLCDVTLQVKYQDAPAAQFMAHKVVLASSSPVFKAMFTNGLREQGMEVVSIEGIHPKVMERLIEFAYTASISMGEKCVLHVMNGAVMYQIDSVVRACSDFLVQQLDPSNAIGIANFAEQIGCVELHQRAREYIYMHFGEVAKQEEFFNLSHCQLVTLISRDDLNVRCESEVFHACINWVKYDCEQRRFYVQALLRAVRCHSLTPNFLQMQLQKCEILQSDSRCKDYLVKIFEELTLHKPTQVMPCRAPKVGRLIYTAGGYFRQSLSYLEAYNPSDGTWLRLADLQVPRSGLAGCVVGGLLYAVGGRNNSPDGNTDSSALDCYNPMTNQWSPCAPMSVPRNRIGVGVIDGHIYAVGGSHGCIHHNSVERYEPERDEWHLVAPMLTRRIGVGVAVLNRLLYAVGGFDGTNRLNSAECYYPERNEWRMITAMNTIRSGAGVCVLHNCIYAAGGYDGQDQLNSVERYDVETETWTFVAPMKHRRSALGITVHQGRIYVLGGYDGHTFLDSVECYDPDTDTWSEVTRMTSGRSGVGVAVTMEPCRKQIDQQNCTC

Molecule | activation at 16 µM [%] | activation at 32 µM [%] | 100 nL (luminescence) (Table 1A) | 200 nL (luminescence) (Table 1A) | 100 nL (luminescence) (Table 2) | 200 nL (luminescence) (Table 2) | hit strength in the screen (words) | Activation 100 nL [%] | Activation 200 nL [%]
COC(=O)Nc1nc2ccc(Sc3ccccc3)cc2[nH]1 [FENBENDAZOLE, reference compound] | 224 | -24 | 4908 | 92 |  |  |  |  | 
CC(=O)O[C@@H]1C[C@H]2C(C)(C)C(=O)CC[C@]2(C)[C@H]2CC[C@@]3(C)[C@H](c4ccoc4)OC(=O)[C@H]4O[C@]43[C@@]21C [DIHYDROGEDUNIN] | 112 | 114 |  |  | 1866 | 3068 |  |  | 
O=c1c(O)c(-c2ccccc2)oc2ccccc12 [3-Hydroxyflavone] |  |  |  |  |  |  | modest Nrf2 activator |  | 
[…](CAPE) |  |  |  |  | 2508 | 16 |  | 245 | −14
CC(=O)C(=Cc1ccccc1)CC(=O)O |  |  |  |  | 1048 | 1348 |  | 78 | 43
CC(=O)O[C@H]1CC[C@]2(C)C(C[C@@H](OC(C)=O)[C@]3(C)C4=CC(=O)O[C@H](c5ccoc5)[C@@]4(C)CCC23)C1(C)C (stereo partly drawn) [3-DEOXO-3beta-ACETOXYDEOXYDIHYDROGEDUNIN] |  |  |  |  | 1256 | 1252 |  | 59 | 61
O=c1c(O)c(-c2ccccc2)oc2cccc(O)c12 [3,5-DIHYDROXYFLAVONE] | 66 | -17 |  |  | 1484 | 24 |  |  | 
CC1(C)C(=O)CC[C@]2(C)[C@H]3CC[C@]4(C)C(=CC(=O)O[C@H]4c4ccoc4)[C@]3(C)[C@H](O)C[C@@H]12 [DIHYDRO-7-DESACETYLDEOXYGEDUNIN] |  |  |  |  | 1852 | 1796 |  | 98 | 96
COc1cc(O)c(C(=O)/C=C/c2ccc(O)c(OC)c2)c(OC)c1 [2′,4-DIHYDROXY-3,4′,6′-TRIMETHOXYCHALCONE] | 655 | 305 |  |  | 6104 | 7512 |  |  | 
COC(=O)NC(=S)Nc1ccccc1NC(=S)NC(=O)OC |  |  |  |  | 712 | 836 |  | 40 | 21
O=c1c(-c2ccccc2)coc2cc(O)cc(O)c12 [5,7-DIHYDROXYISOFLAVONE] | 45 | 58 |  |  | 964 | 1776 |  |  | 
COc1ccnc(C[S+]([O-])c2nc3cc(OC(F)F)ccc3[nH]2)c1OC (stereo not shown) [PANTOPRAZOLE, reference compound] | 25 | 60 | 904 | 1504 |  |  |  |  | 
NC(=O)c1ccc[n+]([C@@H]2O[C@H](COP(=O)([O-])OP(=O)(O)OC[C@H]3O[C@@H](n4cnc5c(N)ncnc54)[C@H](O)[C@@H]3O)[C@@H](O)[C@H]2O)c1 [NADIDE, reference compound] | 31 | 16 | 640 | 712 |  |  |  |  | 
